Test results taken from patent publication US20240245627A1, “ALKENE QUINONE COMPOUNDS AND METHODS OF USE” (University of Pittsburgh - Of the Commonwealth System of …, priority 2021, published 2024).

Assays:
Recombinant CYB5R3 = molecular target: T1, Recombinant CYB5R3 (Homo sapiens, UniProt P00387); assay: Reduction of oxidized myoglobin by recombinant CYB5R3 (NADH-initiated, absorbance); assay type: biochemical
T1 sequence (P00387 1-301): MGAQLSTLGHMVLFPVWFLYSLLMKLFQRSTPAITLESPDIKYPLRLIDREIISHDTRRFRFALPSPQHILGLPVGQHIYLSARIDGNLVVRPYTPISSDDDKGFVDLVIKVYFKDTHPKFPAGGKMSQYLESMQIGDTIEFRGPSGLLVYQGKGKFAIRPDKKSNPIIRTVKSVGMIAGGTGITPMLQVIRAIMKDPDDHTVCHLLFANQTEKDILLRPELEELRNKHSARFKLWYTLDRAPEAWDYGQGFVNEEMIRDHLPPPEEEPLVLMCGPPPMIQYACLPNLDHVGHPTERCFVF
Method: FIGS. 2a-2c. Reduction of oxidized myoglobin by CYB5R3 is not affected by (FIG. 2a) oleic acid or (FIG. 2b) Q-OA (CoQ-linked oleic acid). Q-NA enhanced (FIG. 2c) CYB5R3 reduction of myoglobin. Error bars are S.E.M. and n=3.
Recombinant CYB5R3 was incubated with nitro-oleic acid, CoQ-linked oleic acid or Q-NA along with oxidized myoglobin. NADH stimulation initiated the reaction and absorbance changes were monitored which is indicative of myoglobin reduction. Q-NA increased myoglobin heme reduction whereas the other compounds had no effect (FIG. 2). Q-NA alone had no effect on myoglobin reduction.

[1] = system: RPS/RPL gene expression in human aortic endothelial cells; assay: RPS/RPL gene transcription in human aortic endothelial cells (RNA sequencing); assay type: cell-based; conditions: 5 μM, 6 hours
Method: FIG. 9. NO2—OA and Q-NA stimulate divergent effects of RSP/RPL gene transcription in aortic endothelial cells.
Human aortic endothelial cells were stimulated with vehicle (dimethylsulfoxide, (DMSO)), 5 μM of NO2—OA, or 5 μM Q-NA. Following 6 hours of stimulation, cells were lysed and RNA sequencing was performed.

Compound | myoglobin heme reduction by CYB5R3 (Recombinant CYB5R3) | RPS/RPL gene expression compared to Q-NA treatment [1]
CCCCCCCC/C=C\CCCCCCCC(=O)O [oleic acid, octadece-9-noic acid] | not affected | –
9-, 10-nitro octadece-9-noic acid [NO2—OA] | no effect | opposing effects
